Series [1] deals with COX1 (Homo sapiens, UniProt P23219). Kind of series: Off-target enzyme assay. The class given is biochemical. The note with it: 10 μM compound, not shown.
Series [2] has as its target T1, D2 dopamine receptor (Homo sapiens, UniProt P14416).
T1 construct: expressed in transfected cells; host or cells: HEK-293 or CHO
Kind of series: Off-target radioligand binding. The note with it: 10 μM compound.

Series [3] has as its target T2, 5-HT2A serotonin receptor (Homo sapiens, UniProt P28223).
T2 construct: expressed in transfected cells; host or cells: HEK-293 or CHO
The series can be described thus: Off-target radioligand binding. The settings on record: 10 μM compound.
Description: Receptors and transporters of interest were overexpressed in either human recombinant human embryonic kidney (HEK)-293 or Chinese hamster ovary (CHO) cells. […] Results are expressed as percent inhibition of control-specific binding of the radioactively labelled ligand specific for the respective target. For enzyme inhibition, the effect was calculated as a percent inhibition of control enzyme activity. […] All presented values are the mean of two experiments.

The target of series [4] is T3, H1 histamine receptor (Homo sapiens, UniProt P35367).
T3 construct: expressed in transfected cells; host or cells: HEK-293 or CHO
Kind of series: Off-target radioligand binding. The settings on record: 10 μM compound.

Series [5] has as its target 5-HT3 serotonin receptor (Homo sapiens, UniProt P46098). The series can be described thus: Off-target radioligand binding. The settings on record: 10 μM compound.
Series [6] has as its target COX2 (Homo sapiens, UniProt P35354). The series can be described thus: Off-target enzyme assay. The class given is biochemical. The note with it: 10 μM compound, not shown.
In series [7] the target is T4, 5-HT2B serotonin receptor (Homo sapiens, UniProt P41595).
T4 construct: expressed in transfected cells; host or cells: HEK-293 or CHO
The series can be described thus: Off-target radioligand binding. The note with it: 10 μM compound.

Series [8] deals with T5, M1 muscarinic receptor (Homo sapiens, UniProt P11229).
T5 construct: expressed in transfected cells; host or cells: HEK-293 or CHO
Kind of series: Off-target radioligand binding. The settings on record: 10 μM compound.

For series [9], the target named is AChE (Homo sapiens, UniProt P22303). The note with it: 10 μM compound, not shown.
For series [10], the system named is 5-HT1B serotonin receptor. Kind of series: Off-target radioligand binding. Also noted: species or system human. The note with it: 10 μM compound.
Series [11] deals with PDE4D2 (Homo sapiens, UniProt Q08499). The series can be described thus: Off-target enzyme assay. Format: biochemical. The settings on record: 10 μM compound, not shown.
The target in series [12] is PDE3A (Homo sapiens, UniProt Q14432). Kind of series: Off-target enzyme assay. Format: biochemical. The settings on record: 10 μM compound, not shown.
Series [13] concerns the target T6, M3 muscarinic receptor (Homo sapiens, UniProt P20309).
T6 construct: expressed in transfected cells; host or cells: HEK-293 or CHO
Kind of series: Off-target radioligand binding. The settings on record: 10 μM compound.

Series [14] deals with Lck kinase (Homo sapiens, UniProt P06239). Kind of series: Off-target enzyme assay. Format: biochemical. The settings on record: 10 μM compound, not shown.
Series [15] relates to C57BL/6 J mice. Kind of series: 5-choice serial-reaction-time task (5-CSRTT), unspecific behavioural effects. Format: in vivo. On the procedure: Training was performed in 16 standard mouse Bussey-Saksida touchscreen chambers (model #80614, Campden Instruments Ltd., UK), previously described in detail. In short, each trapezoidal operant chamber was placed in a sound- and light- attenuating box individually equipped with a house light, a reward magazine with light, a liquid reward dispenser, a sound generator, a perforated stainless steel floor, and a touchscreen placed at the wide end of the chamber and covered permanently by a black acrylic glass 5-hole mask. The reward magazine, located opposite the touchscreen, was connected to a liquid dispenser delivering strawberry milk (Yazoo®). Infrared break-beam sensors located inside and on the front of the food magazine as well as on the touch-screen walls allowed the detection of reward delivery and the animal’s locomotor activity, respectively. Four individual chambers were connected to one computer for controlling the task flow using the graphical task design software ABET II Touch (model #89505, Campden Instruments Ltd., UK) and the WhiskerServer software (Cambridge University Technical Services Ltd., UK)[27].
Mice were habituated to the chambers for three consecutive 20-min sessions during which the house light and magazine light were permanently on. At the start of each session, 30 µl strawberry milk was delivered. Every 15 s after head entry into the magazine, an additional 30 µl strawberry milk was delivered. Head entry turned the magazine light off.
The 5-CSRTT training protocol, originally designed for rats[28], was similar as that previously described for mice[29]–[31]. The training comprised six stages with 30-min sessions initiated by the illumination of the house and magazine lights and delivery of 20 µl strawberry milk. Collection of the reward switched the magazine light off and started the first trial.
In the first stage, the middle window was permanently illuminated, which was turned off when touched, followed by reward delivery (20 µl) with illumination of the magazine light. Head entry switched off the magazine light. Mice performing 30 trials in a session continued to the next stage. Training sessions in stages 2–6 comprised a maximum of 120 trials. Collection of the reward initiated the inter-trial interval (ITI) followed by the illumination of one pseudo-randomly selected aperture for a fixed stimulus duration (SD). Any touch to the screen during the ITI was classified as a premature response which was not counted as a trial and terminated the current trial. Following stimulus detection, a nose poke to the corresponding aperture within a fixed time interval (limited hold; LH) was required for reward delivery. Premature responses made during the ITI, incorrect responses, and the omission of a response within the LH led to a timeout (TO, house light switched off for 4 s) instead of delivery of reward. Correct, incorrect and omitted responses defined the total number of trials. […] The criteria to pass the last stage and reach baseline performance were to complete >30 correct trials, with ≥80% accuracy and ≤30% omissions. Percentage accuracy was defined as the number of correct trials divided by the sum of correct and incorrect trials. Percentage omissions were calculated in terms of the number of completed trials. Premature responding was calculated as a percentage of completed trials. Perseveration was calculated as the number of additional responses made in the same aperture following a correct response. Additionally, the correct-response latency (time from stimulus presentation to correct response) and reward latency (time from correct response to reward collection) were measured across all trials.
Either one or up to three days before, as well as one day after the task challenge, mice were trained at baseline conditions to check for any unexpected changes in task performance (e.g. by long lasting drug- or challenge-induced effects). […]

Series [16] has as its system hM3Dq. Also noted: method as in PMID 25587888. The note with it: FLIPR assay; cited from earlier work.
The test system of series [17] is κ opioid receptor. The series can be described thus: Off-target radioligand binding. Also noted: species or system human. The note with it: 10 μM compound.
The target in series [18] is T7, M2 muscarinic receptor (Homo sapiens, UniProt P08172).
T7 construct: expressed in transfected cells; host or cells: HEK-293 or CHO
Kind of series: Off-target radioligand binding. The settings on record: 10 μM compound.

In series [19] the target is T8, D1 dopamine receptor (Homo sapiens, UniProt P21728).
T8 construct: expressed in transfected cells; host or cells: HEK-293 or CHO
Kind of series: Off-target radioligand binding. The note with it: 10 μM compound.

Series [20] deals with T9, α1A adrenoreceptor (Homo sapiens, UniProt P35348).
T9 construct: expressed in transfected cells; host or cells: HEK-293 or CHO
The series can be described thus: Off-target radioligand binding. The settings on record: 10 μM compound.

The target in series [21] is T10, δ opioid receptor (Homo sapiens, UniProt P41143).
T10 construct: expressed in transfected cells; host or cells: HEK-293 or CHO
The series can be described thus: Off-target radioligand binding. The settings on record: 10 μM compound.

Series [22] can be described thus: Pharmacokinetics in plasma, CSF and cortical brain tissue after i.p. injection.
Description: (§1) Blood (approximately 100 µl) was collected from the vena facialis in anaesthetised animals, followed by CSF sampling (approximately 10 µl) from the cisterna magna under pentobarbital anaesthesia (1:25 in saline, 10 ml/kg, i.p., Narcoren, Boehringer Ingelheim, Germany). Subsequently, the brain was removed and its anterior third (including the medial prefrontal and anterior cingulate cortices) dissected and transferred into Precellys tubes cooled in liquid nitrogen. For plasma extraction, blood was transferred to EDTA coated tubes and centrifuged for 10 min at 10,000 rpm at 4 °C. Maximal plasma concentration (Cmax), time taken to reach maximal plasma concentration (Tmax) and mean residence time were assessed using liquid chromatography–mass spectrometry analysis executed on the HP1200 (Agilent, CA, USA) coupled to the API 6500 (AB Sciex, Germany) using BI00001052 (Boehringer Ingelheim) as internal standard. In short, 5 µl of plasma or CSF sample were mixed with 10 nl internal standard. 70 µl acetonitrile (ACN)/methanol (1:1) was added, kept at −20 °C for 15 min and centrifuged for 4 min at 4000 rpm at 4 °C. 30 µl of the supernatant was mixed with 170 µl 0.1% formic acid. Brain homogenization was executed by Precellys Evolution (Bertin) after adding ACN/methanol (1:1)/aq.dest. (3:1) to each brain sample with a volume corresponding to 4 parts of the brain weight, followed by centrifugation for 1 min at 4000 rpm at 4 °C. 5 µl of the supernatant was mixed with 10 nl of internal standard.
For series [23], the target named is T11, hM4Di (Homo sapiens, UniProt P08173, A203G/Y113C).
T11 construct: expressed in transfected cells; host or cells: primary cortical neurons of embryonic (E18) Sprague-Dawley rats, AAV-transduced
T11 sequence (P08173 1-479 Y113C/A203G): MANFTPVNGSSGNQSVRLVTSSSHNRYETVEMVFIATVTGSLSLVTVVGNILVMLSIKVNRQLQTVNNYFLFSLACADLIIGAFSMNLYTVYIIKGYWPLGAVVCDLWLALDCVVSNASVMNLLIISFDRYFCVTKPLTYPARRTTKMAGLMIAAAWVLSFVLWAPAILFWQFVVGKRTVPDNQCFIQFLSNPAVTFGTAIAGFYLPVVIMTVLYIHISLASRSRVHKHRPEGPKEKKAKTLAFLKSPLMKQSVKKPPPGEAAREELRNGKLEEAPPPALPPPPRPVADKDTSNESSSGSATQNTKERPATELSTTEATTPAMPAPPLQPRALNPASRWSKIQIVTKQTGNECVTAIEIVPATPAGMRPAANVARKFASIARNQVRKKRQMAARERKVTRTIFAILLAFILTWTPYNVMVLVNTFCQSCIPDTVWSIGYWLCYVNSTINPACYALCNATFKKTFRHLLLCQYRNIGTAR
The series can be described thus: FLIPR Ca2+ oscillation assay in primary rat neuronal cultures transduced with hM4Di. The class given is cell-based. The note with it: reduction of Ca2+ oscillation frequency, hM4Di-transduced rat primary neurons, Hill fit; read-out: half maximal effective concentration (EC50) at hM4Di.
Description: Briefly, cortices were dissected from embryonic brains, meninges were removed, and cortices transferred into ice-cold dissociation buffer (2 mM kynurenic acid, 10 mM HEPES, 20 mM MgCl2 (Fluka, Germany) and 33.4 mM Glucose in Hank’s Balanced Salt Solution (HBSS), pH 7.4 (Gibco, Thermo Fischer Scientific, Massachusetts, USA). Cortices were then dissociated in 20 units/ml papain solution (5.5 mM L- Cysteine hydrochloride, 1.1 mM ethylenediamine tetra-acetic acid [EDTA], 0.067 mM 2-Mercaptoethanol in Minimum Essential Medium [MEM]) for 15 min at 37 °C. Cortices were washed twice by adding 20 ml plating medium (1:50 foetal calve serum, 1:100 penicillin/streptomycin and 1:100 GlutaMax in MEM) followed by cell filtration using a 70 µm cell strainer (Corning, model #352350, Merck, Germany) to obtain a single-cell suspension. Dissociated cells were re-suspended in serum-free Neurobasal medium with Glutamax and B27 supplement (Gibco) and plated on PDL-coated 96 MTPs (Corning #356640). Virus (ssAAV-1/2-hSyn1-hM4D[Gi]_mCherry-WPRE-hGHp[A]) transduction was performed immediately after plating. Cells were maintained at 37 °C (5% CO2 and 10% O2) in a humidified incubator. A half feed medium change was done on DIV8. Final assay conditions used for evaluating activity of compounds were 0.95 × 10^5 cells/cm^2, transduced with 10.000 multiplicity of infection and measured on DIV9.
Medium was removed and cells were incubated in assay buffer (HBSS, Gibco, 10 mM HEPES, pH 7.4) containing 4 µM Fluo-4AM (Thermo Fischer Scientific) and 0.1% Pluronic F-127 (Thermo Fischer Scientific #P3000MP) for 1 h at room temperature in the dark. Loading buffer was then replaced with assay buffer. After 10 min, assay plates were measured in the FLIPR tetra (Molecular Devices, California, USA) using green fluorescence filter settings (excitation 470–495 nm, emission 515–575 nm). Fluorescence signals were recorded at 1 s intervals (0.4 s exposure time). Compound addition was automated in a single addition protocol. Tested compounds (concentrations:0.3 nM–1 µM; retigabine at 30 µM) were added after recording a baseline response for 5 min followed by another 5 min for recording compound effects on Ca^2+ oscillations. Each compound dose was repeated on three individual plates in duplicates.
Time-series raw fluorescence traces recorded from the FLIPR assay were analysed by detecting Ca^2+ peaks based on a fixed amplitude threshold[19]. The change in oscillation frequency was determined by counting the number of peaks in a defined time interval (5 min) before and after addition of the tested compound and calculating the Ca^2+ oscillations frequency from their number. […] For visualisation, all data were transferred to GraphPad Prism 7 (Graphpad Software, Inc., CA, USA).

In series [24] the target is T12, 5-HT1A serotonin receptor (Homo sapiens, UniProt P08908).
T12 construct: expressed in transfected cells; host or cells: HEK-293 or CHO
Kind of series: Off-target radioligand binding. The settings on record: 10 μM compound.

Series [25] concerns the target T13, μ opioid receptor (Homo sapiens, UniProt P35372).
T13 construct: expressed in transfected cells; host or cells: HEK-293 or CHO
Kind of series: Off-target radioligand binding. The settings on record: 10 μM compound.

A short description of series [26]: in vivo. The note with it: mouse, ip.
Description: as §1
[27] abbreviates: mice, 15 min after 3.0 mg/kg Cmpd-21 i.p.
Setting [28] is: mice, 60 min after 3.0 mg/kg Cmpd-21 i.p.
Setting [29] is: brain (cortical tissue), 3.5 mg/kg.

pEC50: −log10 of the molar value. Bounds are passed on as bounds.

T10 sequence (P41143 whole entry): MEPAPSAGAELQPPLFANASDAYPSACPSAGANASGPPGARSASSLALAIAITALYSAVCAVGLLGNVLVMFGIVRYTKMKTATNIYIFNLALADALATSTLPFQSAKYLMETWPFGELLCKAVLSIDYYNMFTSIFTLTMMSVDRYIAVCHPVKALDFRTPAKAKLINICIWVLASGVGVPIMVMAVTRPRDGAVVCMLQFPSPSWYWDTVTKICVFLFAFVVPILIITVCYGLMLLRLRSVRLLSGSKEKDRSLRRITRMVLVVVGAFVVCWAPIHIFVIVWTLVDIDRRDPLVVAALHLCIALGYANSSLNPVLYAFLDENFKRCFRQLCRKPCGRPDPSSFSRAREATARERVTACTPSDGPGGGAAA
T6 sequence (P20309 whole entry): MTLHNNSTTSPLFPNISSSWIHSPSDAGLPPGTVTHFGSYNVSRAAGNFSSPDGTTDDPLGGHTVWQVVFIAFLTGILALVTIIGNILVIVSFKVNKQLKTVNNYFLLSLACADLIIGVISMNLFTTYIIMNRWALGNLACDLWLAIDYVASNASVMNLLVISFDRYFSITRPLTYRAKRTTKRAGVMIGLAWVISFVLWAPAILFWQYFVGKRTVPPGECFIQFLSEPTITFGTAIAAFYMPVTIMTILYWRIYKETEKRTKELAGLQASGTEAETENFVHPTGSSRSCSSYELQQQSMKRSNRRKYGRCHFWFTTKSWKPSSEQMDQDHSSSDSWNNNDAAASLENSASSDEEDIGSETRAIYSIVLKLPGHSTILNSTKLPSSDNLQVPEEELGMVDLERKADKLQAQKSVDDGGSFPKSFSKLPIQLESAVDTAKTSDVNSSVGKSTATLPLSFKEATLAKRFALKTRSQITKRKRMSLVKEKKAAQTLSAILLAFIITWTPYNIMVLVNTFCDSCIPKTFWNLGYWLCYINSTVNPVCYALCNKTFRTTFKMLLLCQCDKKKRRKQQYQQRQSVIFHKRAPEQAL
T9 sequence (P35348 whole entry): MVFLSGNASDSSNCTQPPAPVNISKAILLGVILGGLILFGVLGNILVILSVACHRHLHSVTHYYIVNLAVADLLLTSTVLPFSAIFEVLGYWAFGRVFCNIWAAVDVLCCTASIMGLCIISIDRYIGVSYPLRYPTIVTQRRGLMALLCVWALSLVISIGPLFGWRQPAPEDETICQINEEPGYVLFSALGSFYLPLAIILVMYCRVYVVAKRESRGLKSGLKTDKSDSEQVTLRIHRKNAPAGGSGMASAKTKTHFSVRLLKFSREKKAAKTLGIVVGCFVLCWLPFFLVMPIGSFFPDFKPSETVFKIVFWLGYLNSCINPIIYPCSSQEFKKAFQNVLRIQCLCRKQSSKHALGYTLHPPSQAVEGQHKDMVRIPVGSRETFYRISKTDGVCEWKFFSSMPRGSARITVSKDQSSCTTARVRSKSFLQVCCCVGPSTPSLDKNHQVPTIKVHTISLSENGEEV
COX2, sequence (P35354 18-604): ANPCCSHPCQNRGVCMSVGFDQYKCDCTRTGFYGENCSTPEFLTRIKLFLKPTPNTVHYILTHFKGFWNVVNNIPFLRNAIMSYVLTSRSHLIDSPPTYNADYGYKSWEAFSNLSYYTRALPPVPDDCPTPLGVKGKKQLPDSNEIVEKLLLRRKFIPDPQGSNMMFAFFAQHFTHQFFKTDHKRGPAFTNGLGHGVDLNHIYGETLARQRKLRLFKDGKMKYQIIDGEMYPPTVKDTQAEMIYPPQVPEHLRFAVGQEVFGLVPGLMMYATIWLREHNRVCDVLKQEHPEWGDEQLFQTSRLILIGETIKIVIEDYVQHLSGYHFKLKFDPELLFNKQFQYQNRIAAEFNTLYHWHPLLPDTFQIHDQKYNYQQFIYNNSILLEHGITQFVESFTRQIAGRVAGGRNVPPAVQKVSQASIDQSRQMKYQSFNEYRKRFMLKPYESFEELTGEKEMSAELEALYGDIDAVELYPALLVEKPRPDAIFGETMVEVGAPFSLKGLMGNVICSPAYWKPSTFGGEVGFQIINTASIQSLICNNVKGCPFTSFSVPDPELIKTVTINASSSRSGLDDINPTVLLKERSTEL
PDE3A, sequence (Q14432 whole entry, species assumed): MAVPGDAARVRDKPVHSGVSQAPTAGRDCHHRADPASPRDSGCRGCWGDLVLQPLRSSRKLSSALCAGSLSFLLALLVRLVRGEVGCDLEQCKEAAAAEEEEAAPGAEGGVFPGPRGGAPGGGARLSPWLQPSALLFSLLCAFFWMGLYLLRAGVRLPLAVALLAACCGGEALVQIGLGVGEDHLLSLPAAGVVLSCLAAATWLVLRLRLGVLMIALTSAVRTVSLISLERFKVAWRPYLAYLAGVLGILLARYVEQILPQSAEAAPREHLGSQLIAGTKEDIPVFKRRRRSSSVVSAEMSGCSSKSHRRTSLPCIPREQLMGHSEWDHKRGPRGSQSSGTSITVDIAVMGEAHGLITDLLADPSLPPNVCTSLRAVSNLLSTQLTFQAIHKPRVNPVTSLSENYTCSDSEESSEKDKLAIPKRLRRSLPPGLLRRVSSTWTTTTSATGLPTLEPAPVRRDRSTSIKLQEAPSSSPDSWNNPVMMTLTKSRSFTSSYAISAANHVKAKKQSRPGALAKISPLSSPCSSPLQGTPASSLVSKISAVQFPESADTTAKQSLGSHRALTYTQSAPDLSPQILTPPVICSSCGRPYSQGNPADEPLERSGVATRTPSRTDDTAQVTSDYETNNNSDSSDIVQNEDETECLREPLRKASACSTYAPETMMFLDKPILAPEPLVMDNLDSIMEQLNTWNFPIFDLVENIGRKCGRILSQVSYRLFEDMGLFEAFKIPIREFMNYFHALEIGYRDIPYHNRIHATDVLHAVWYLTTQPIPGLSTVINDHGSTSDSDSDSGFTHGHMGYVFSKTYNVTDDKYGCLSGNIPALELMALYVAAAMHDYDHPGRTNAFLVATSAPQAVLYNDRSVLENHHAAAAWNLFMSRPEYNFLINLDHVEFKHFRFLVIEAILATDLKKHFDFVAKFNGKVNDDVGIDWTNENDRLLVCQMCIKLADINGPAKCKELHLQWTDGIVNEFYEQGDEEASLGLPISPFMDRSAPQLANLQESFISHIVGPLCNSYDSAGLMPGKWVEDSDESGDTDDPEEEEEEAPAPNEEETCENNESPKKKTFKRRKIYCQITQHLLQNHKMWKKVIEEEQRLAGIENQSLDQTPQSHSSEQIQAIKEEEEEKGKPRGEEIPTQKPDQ
COX1, sequence (P23219 24-599): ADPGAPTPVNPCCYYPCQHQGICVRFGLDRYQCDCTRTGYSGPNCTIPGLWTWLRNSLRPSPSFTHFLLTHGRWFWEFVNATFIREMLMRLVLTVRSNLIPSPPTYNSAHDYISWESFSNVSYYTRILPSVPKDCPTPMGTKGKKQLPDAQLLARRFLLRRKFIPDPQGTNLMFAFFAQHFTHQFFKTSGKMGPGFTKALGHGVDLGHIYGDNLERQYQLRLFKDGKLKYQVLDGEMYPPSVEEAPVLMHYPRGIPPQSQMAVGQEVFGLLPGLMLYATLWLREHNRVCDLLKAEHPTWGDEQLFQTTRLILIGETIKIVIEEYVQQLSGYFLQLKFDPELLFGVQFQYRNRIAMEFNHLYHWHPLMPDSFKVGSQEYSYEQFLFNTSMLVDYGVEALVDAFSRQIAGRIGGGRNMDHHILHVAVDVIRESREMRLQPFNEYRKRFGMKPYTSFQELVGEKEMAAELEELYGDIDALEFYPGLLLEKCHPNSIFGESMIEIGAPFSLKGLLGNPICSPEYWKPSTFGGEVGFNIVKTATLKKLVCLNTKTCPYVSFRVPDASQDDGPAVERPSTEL
T13 sequence (P35372 whole entry): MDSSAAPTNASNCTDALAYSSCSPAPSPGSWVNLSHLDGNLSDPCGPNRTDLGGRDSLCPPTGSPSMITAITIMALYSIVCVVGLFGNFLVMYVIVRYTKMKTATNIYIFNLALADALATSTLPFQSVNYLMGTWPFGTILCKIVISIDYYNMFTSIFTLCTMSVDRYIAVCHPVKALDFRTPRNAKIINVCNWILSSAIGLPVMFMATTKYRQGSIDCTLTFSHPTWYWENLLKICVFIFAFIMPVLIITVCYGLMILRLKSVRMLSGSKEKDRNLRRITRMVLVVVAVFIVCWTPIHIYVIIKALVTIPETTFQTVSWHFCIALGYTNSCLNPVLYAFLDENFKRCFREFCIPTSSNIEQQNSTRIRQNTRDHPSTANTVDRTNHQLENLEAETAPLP
T7 sequence (P08172 whole entry): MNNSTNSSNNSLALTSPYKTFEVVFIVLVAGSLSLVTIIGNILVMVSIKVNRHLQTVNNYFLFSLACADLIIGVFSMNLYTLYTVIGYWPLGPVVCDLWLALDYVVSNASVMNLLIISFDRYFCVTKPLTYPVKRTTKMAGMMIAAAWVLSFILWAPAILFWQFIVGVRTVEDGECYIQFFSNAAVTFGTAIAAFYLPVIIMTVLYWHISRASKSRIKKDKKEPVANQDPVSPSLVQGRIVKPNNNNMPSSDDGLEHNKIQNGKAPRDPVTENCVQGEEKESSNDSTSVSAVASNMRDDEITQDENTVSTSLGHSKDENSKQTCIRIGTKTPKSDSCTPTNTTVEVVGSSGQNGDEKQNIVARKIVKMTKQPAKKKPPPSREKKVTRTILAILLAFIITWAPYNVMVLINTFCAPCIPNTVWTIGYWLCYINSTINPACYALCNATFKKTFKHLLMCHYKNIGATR
T12 sequence (P08908 whole entry): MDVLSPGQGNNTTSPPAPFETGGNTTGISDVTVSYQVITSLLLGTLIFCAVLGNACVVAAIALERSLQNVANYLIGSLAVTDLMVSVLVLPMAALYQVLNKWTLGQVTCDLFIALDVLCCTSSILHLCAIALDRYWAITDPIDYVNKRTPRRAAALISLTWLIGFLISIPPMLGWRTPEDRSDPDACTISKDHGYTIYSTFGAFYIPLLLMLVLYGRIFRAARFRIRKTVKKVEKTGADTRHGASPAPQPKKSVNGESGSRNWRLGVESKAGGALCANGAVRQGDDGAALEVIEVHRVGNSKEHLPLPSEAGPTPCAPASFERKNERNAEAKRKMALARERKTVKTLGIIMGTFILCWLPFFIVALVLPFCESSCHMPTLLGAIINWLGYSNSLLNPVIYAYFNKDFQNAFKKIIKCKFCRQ

Regarding `c1ccc2c(c1)N=C(N1CCNCC1)c1ccccc1N2` [Cmpd-21, compound 21], the inhibition was less than 25% in series [1]; 60% in series [6]; less than 25% in series [9]; less than 25% in series [11]; less than 25% in [12]; less than 25% in [14]. The “competitive inhibition of ligand binding” value in series [2], in [3], in series [4], in [5], in series [7] and in series [8] was greater than 50% each time. Further, the “competitive inhibition of ligand binding” value in [10], in series [13], in series [17], in [18], in series [19] and in series [20] was greater than 50% each time. For the same compound, the “competitive inhibition of ligand binding” value in series [21], in [24] and in series [25] was greater than 50% each time. For the same compound, the “behavioural changes in 5-CSRTT parameters” value in [15] (Cmpd-21 0.3, 1 and 3 mg/kg i.p.) was “did not produce any significant behavioural changes in any 5-CSRTT parameters”. Further, the values for the pEC50 in [16] and in series [23] were 8.77 and 8.53, respectively. Also, the results for the mean brain concentration in series [22] (setting [27]) and in series [22] (setting [28]) were 722 nM and 1273 nM, respectively. Moreover, in [22] (setting [27]), the “mean concentration in CSF” value was 52 nM. The “mean concentration in plasma” value in series [22] (setting [27]) amounted to 5833 nM. The “CSF concentration as % of peak value” in [22] (setting [28]) is listed as 54%. Further, the “plasma concentration as % of peak value” in series [22] (setting [28]) amounted to 57%. The “time of peak plasma and CSF levels” value in series [22] (mice, after 3.0 mg/kg Cmpd-21 i.p., earliest time point of measurement) came to 15 min. Moreover, the “conversion to CLZ or CNO” value in series [22] (mice, data not shown) is reported as “did not detect any conversion”.

With `Clc1ccc2c(c1)N=C(N1CCNCC1)c1ccccc1N2` [NorCLZ, norclozapine], the “detection of metabolite in plasma” value in series [22] (mice, 15, 30, 60 min after i.p. 1 mg/kg CLZ) is “detectable in all plasma samples”.

`CN1CCN(C2=Nc3cc(Cl)ccc3Nc3ccccc32)CC1` [CLZ, clozapine]: in series [15] (CLZ 0.1 mg/kg i.p., p = 0.0439), the attentional accuracy result is given as “mild decrease”. For the same compound, in series [15] (CLZ 1 mg/kg i.p., p = 0.0108), the “omissions (inattentiveness)” value is listed as “mild increase”. Besides, the “behavioural changes in 5-CSRTT parameters” value in series [15] (CLZ 0.1, 0.3 and 1 mg/kg i.p., vs vehicle) is on record as “did not produce any significant behavioural changes in most 5-CSRTT parameters”. In series [26] (C57BL/6J, CSF, 1 mg/kg), this compound displayed a Kp of roughly 0.01. Also, the concentration at 15 min is 1.9 nM in series [26] (CSF, 1 mg/kg); roughly 427 nM in [26] (setting [29]); 2060 nM in series [26] (brain, 1 mg/kg); 344 nM in series [26] (plasma, 1 mg/kg). The concentration at 60 min was found to be 406 nM in [26] (setting [29]); 1020 nM in [26] (brain, 1 mg/kg); 123 nM in series [26] (plasma, 1 mg/kg). This compound also had a Kp at 15 min in series [26] (brain, 1 mg/kg) of roughly 6. The Tmax in series [26] (plasma, brain and CSF, 1 mg/kg) was 15 min. Also, the “mean CLZ plasma concentration as % of mean CNO plasma concentration” value in series [22] (mice, 15 min after i.p. 3.5 mg/kg CNO) was “approximately 3.3%”. Besides, the “free (CSF) concentration as % of the brain concentration” value in series [22] (mice, after i.p. 1 mg/kg CLZ) is “approximately 0.1%”. In addition, in [22] (mice, all sampling points (15, 30, 60 min) after i.p. 3.5 mg/kg CNO, detection limit), the “concentration in CSF” value was 1 to 2.5 nM. In series [22] (mice, single injection of CLZ), the “decline within 60 min in plasma and brain tissue” value is “approximately 2 fold”.

The record behind these values is PMC6418145 (Scientific Reports, 2019).
